In PubChem BioAssay AID1996:
Values after ≈ are worked out from the molar mass of the structure shown.

conditions: buffer; pH 7.4; 200.0 µM

SMILES | solubility kinetic [µg/mL]
CCOC(=O)c1sc(=S)n(-c2ccc(OC)cc2)c1C | 18.1 (≈ 58.5 µM)
Cc1oc2ccccc2c1CNC(=O)N(C)C | > 34.8
Cn1ccnc1SCC(=O)c1ccc(OC(F)F)cc1 | > 44.7
O=C(Nc1nccs1)c1ccc2ccccc2c1 | 1.3 (≈ 5.11 µM)
Cc1cc(NC(=O)CSc2ccnc(=O)[nH]2)no1 | > 39.9
Cc1nc(/C(N)=N/OC(=O)Cc2ccccc2)no1 | 24.4 (≈ 93.8 µM)
O=C(COC(=O)/C=C/c1ccc(F)cc1)NC1CCCCCC1 | 3.7 (≈ 11.6 µM)
C/C(=N\O)C(C)(C)Nc1ccc(Cl)cc1 | 32.1 (≈ 142 µM)
Cc1ccccc1C(=O)OCC(=O)NCC1COc2ccccc2O1 (stereo not given) | 40.9 (≈ 120 µM)
O=c1oc2ccccc2cc1-c1csc(Nc2ccc(O)cc2)n1 | 1.7 (≈ 5.05 µM)
O=C(Nc1nccs1)c1ccccc1Br | 6.2 (≈ 21.9 µM)
Cc1ccsc1C1C(C#N)=C(N)OC2=C1C(=O)CC(C)C2 (stereo not given) | 38.7 (≈ 129 µM)
CC(=O)N1CCN(C23CC4CC(CC(C4)C2)C3)CC1 | > 39.4
Nc1c(C(=O)OCC(=O)Nc2cccc([N+](=O)[O-])c2)[nH]c(=O)[nH]c1=O | 51.5 (≈ 147 µM)
O=C(Cn1c(CO)nc2ccccc21)NCCc1ccccc1 | > 46.4
COc1cc(NC(=O)Cc2ccccc2)c(C(=O)O)cc1OC | 43.5 (≈ 138 µM)
O=C(COC(=O)C1(c2ccccc2F)CCCC1)N1CCNC1=O | > 50.2
CCCCC12CN3CC(C)(CN(C1)C3c1ccc([N+](=O)[O-])o1)C2=O (stereo not given) | > 50
CC(=O)N(C)c1ccc(NC(=O)Cc2cccc3ccccc23)cc1 | 3.9 (≈ 11.7 µM)
COc1ccccc1OCCC(=O)OCC(=O)NCc1ccc(Cl)cc1 | 3.4 (≈ 9 µM)

SMILES | solubility kinetic [µg/mL]
O=C(N/C(=C\c1ccco1)C(=O)N1CCCC(CO)C1)c1ccccc1 (stereo not given) | > 53.2
CCS(=O)(=O)N1CCC(C(=O)Oc2ccccc2)CC1 | 39.1 (≈ 131 µM)
CCOC(=O)C(=O)C1=CN(Cc2ccccc2)C=C(C#N)C1 | > 44.4
CCOC(=O)CCCCNC(=O)Nc1ccccc1 | > 39.6
CCCCNc1ccc2c3c(cccc13)C(=O)N(CCCC)C2=O | 2.1 (≈ 6.47 µM)
COC(=O)/C=C1\N/C(=N\c2nc(C)cc(C)n2)N(c2ccc(Cl)cc2)C1=O | 57.6 (≈ 149 µM)
N#Cc1ccc(C2N=C(c3ccccc3)NO2)cc1 (stereo not given) | 15.3 (≈ 61.4 µM)
Cc1cc(Cl)ccc1Oc1ncnc2onc(C)c12 | 1.9 (≈ 6.89 µM)
CCC(CO)NCc1ccccc1OC(C)C.Cl (stereo not given) | > 41.1
Cc1ccccc1NC(=O)c1ccc2ccccc2c1 | 1.2 (≈ 4.59 µM)
Cc1ccccc1OCCn1cc(C=O)c2ccccc21 | < 0.6
S=C(NCc1ccco1)N1CCN(c2ccccn2)CC1 | 42.5 (≈ 141 µM)
COc1ccc(CCNC(=O)c2coc3ccccc3c2=O)cc1 | 1.7 (≈ 5.26 µM)
CCOC(=O)N1CCN(C(=O)c2ccc3ccccc3c2)CC1 | > 46.9
COC(=O)C(C(=O)OC)c1ncccc1[N+](=O)[O-] | > 38.1
COc1ccc(CCNC(=O)CCCc2ccccc2)cc1 | 35.6 (≈ 120 µM)
COc1ccc(C2CC(=O)NC(=O)C2)cc1 | 22.3 (≈ 102 µM)
Cc1ccnc(NS(=O)(=O)c2cc(C(F)(F)F)ccc2Cl)c1 | 1.7 (≈ 4.85 µM)
CC(=O)c1cccc(NC(=O)Nc2ccc3c(c2)OCO3)c1 | 3.1 (≈ 10.4 µM)
Fc1ccc(N2CN(Cc3cccnc3)CNC2=S)cc1 | > 45.4

SMILES | solubility kinetic [µg/mL]
O=C(NC(=S)NCCC1=CCCCC1)c1cccnc1 | 22.2 (≈ 76.7 µM)
Cc1ccc(C)c(-n2c(C)nc3ccccc3c2=O)c1 | > 39.6
O=C(O)CN1C(=O)c2cccc3c(Br)ccc1c23 | > 45.9
Cc1ccc(NC(=O)CCn2c(=O)[nH]c3ccsc3c2=O)cc1 | 8.2 (≈ 24.9 µM)
O=c1c2ccccc2nc2n1CCO2 | > 28.2
CC(CNC(=O)c1ccc(C#N)cc1)NC(=O)c1ccc(C#N)cc1 (stereo not given) | > 49.9
O=C(NCCN1CCOCC1)c1cc(-c2cccc(O)c2)on1 | > 47.6
Cc1ccc(Nc2ccccc2N)cc1 | 23.1 (≈ 117 µM)
CN(C)S(=O)(=O)c1ccc(Cl)c(C(=O)NC2=NCCS2)c1 | > 52.2
CC(=O)Nc1ccc(NC(=O)COc2ccc(Cl)cc2Cl)cc1 | 1 (≈ 2.83 µM)
CCc1ccc(N/C(=N/c2nc(C)cc(C)n2)NC(C)=O)cc1 | 9.2 (≈ 29.5 µM)
O=C(Cc1ccc(Cl)cc1)Nc1ccccn1 | > 37
Cc1cccc(N(C)S(=O)(=O)c2ccc3c(c2)NC(=O)CC(=O)N3)c1 | > 53.9
CCOC(=O)c1cnc2c(ccc3ccccc32)c1NCCN(C)C | 36.3 (≈ 108 µM)
COC(=O)c1ccncc1N | > 22.8
Oc1c(Cl)cc(Cl)cc1CNc1ccccn1 | 3.1 (≈ 11.5 µM)
NCCc1cnc[nH]1 | 14.1 (≈ 127 µM)
O=C(O)Cc1sc(NC2CCCCC2)nc1-c1ccc(Cl)cc1 | > 52.6
O=S(=O)(c1ccc2ccccc2c1)N1CCN(c2ccc(O)cc2)CC1 | 4.6 (≈ 12.5 µM)
CS(=O)(=O)Nc1ccccc1C(=O)OCC(=O)NCc1cccs1 | > 55.3
